Assay type in all cases: cell-based
In one series the test system is Pseudomonas aeruginosa. The settings on record: 12 h. The method, then: (§1) To compare the antibacterial activities among those peptides prepared by the method of Example 1 of the invention, the inventors measured MIC (minimal inhibitory concentration) of the peptide which is the minimum concentration for staying without being broken.
(§2) Particularly, the strains listed in Table 2 were purchased and cultured in each medium composed as instructed until the mid-log phase. The cells were diluted at the density of 5×10^5 cells/100 μl, which were then inoculated in a micro-titrate plate (Nunc, USA). Then, the CMA1, CMA2, CMA3, CMA4, CMA5, or CMA6 peptide synthesized in Example 1 was ½ fold diluted in each 96 well plate, and then added to the plate, followed by culture at 37° C. for 12 hours. OD620 was measured with a micro-titrate plate reader (Merck Elisa reader, Germany) to determine MIC for each strain. As for the control, the mother peptide CM-MA was treated by the same manner as described above and MIC was also determined.

The subject of a further series is Staphylococcus aureus. The settings on record: 12 h. The method, then:
as §1, §2

The next series deals with Escherichia coli. To be noted: 12 h. The method, then: as §1, §2
In series [1] the test system is Staphylococcus epidermidis. To be noted: 12 h. The method, then: as §1, §2
The next series concerns Salmonella typhimurium. The settings on record: 12 h. The method, then:
as §1, §2

In a further series the test system is Listeria monocytogenes. The settings on record: 12 h. The method, then:
as §1, §2

The next series in a line: in vitro. To be noted: human, HaCaT cells (human keratinocyte cell line). The method, then:
To investigate the cytotoxicity of each peptide prepared by the method of Example 1 to human keratinocyte cell line (HaCaT cell line, Dr. N E. Fusenig, Heidelberg, Germany) was measured.
Particularly, the HaCaT cell line cultured in DMEM supplemented with 10% FBS (Fetal Bovine Serum) was distributed in a 96-well plate at the density of 3×10^3 cells/well, followed by culture for 24 hours. The CM-MA, CMA1, CMA2, CMA3, CMA4, CMA5, or CMA6 peptide prepared in Example 1 was treated to each well at the concentration of 12.5, 25.0, 50.0, 100.0, or 200.0 μM/well, followed by reaction in a 5% CO2 incubator for 24 hours. Upon completion of the culture, 20 ul of the reaction solution containing 5 mg/ml MTT (Thiazolyl Blue Tetrazolium Bromide) dissolved in PBS (phosphate buffered saline) was added to each well, followed by reaction for 4 hours. Then, the supernatant was eliminated.

Converted amounts (≈) assume the structure as drawn. Peptide text beside a SMILES is read from it.

As a reminder, the viability is the share of living cells, or the viability signal relative to a control. Low readings indicate more harm to the cells, high ones less harm to the cells. For the molecule `CC[C@H](C)[C@H](NC(=O)CNC(=O)[C@@H](NC(=O)[C@H](CCCCN)NC(=O)[C@H](CCCCN)NC(=O)[C@H](Cc1ccccc1)NC(=O)[C@H](CC(C)C)NC(=O)[C@H](CCCCN)NC(=O)[C@H](Cc1c[nH]c2ccccc12)NC(=O)[C@@H](N)CCCCN)[C@@H](C)CC)C(=O)NCC(=O)N[C@@H](CCCCN)C(=O)N[C@@H](Cc1ccccc1)C(=O)N[C@@H](CC(C)C)C(=O)N[C@@H](Cc1c[nH]cn1)C(=O)N[C@@H](CO)C(=O)N[C@@H](C)C(=O)N[C@@H](CCCCN)C(=O)N[C@@H](CCCCN)C(=O)N[C@@H](Cc1ccccc1)C(N)=O` [CA-MA, reference compound] (H-KWKLFKKIGIGKFLHSAKKF-NH2), the Minimal inhibitory concentration with Pseudomonas aeruginosa worked out at 1 µM (≈ 2.4 µg/mL); in the series with Staphylococcus aureus it was 8 µM (≈ 19.2 µg/mL); in the series on Escherichia coli it was 2 µM (≈ 4.81 µg/mL); in series [1], 8 µM (≈ 19.2 µg/mL); in the series on Salmonella typhimurium, 1 µM (≈ 2.4 µg/mL); in the series with Listeria monocytogenes it was 0.5 µM (≈ 1.2 µg/mL). The viability at 24 h, 200 µM in the series “in vitro” stood at 1.4%.

As to `CC[C@H](C)[C@H](NC(=O)CNC(=O)[C@@H](NC(=O)[C@H](CCCCN)NC(=O)[C@H](CCCCN)NC(=O)[C@H](Cc1ccccc1)NC(=O)[C@H](CC(C)C)NC(=O)[C@H](CCCCN)NC(=O)[C@H](Cc1c[nH]c2ccccc12)NC(=O)[C@@H](N)CCCCN)[C@@H](C)CC)C(=O)NCC(=O)N[C@@H](CCCCN)C(=O)N[C@@H](Cc1c[nH]cn1)C(=O)N[C@@H](Cc1ccccc1)C(=O)N[C@@H](CC(C)C)C(=O)N[C@@H](CO)C(=O)N[C@@H](C)C(=O)N[C@@H](CCCCN)C(=O)N[C@@H](CCCCN)C(=O)N[C@@H](Cc1ccccc1)C(N)=O` [CMA1] (H-KWKLFKKIGIGKHFLSAKKF-NH2), the Minimal inhibitory concentration with Pseudomonas aeruginosa was found to be 8 µM (≈ 19.2 µg/mL); in the series with Staphylococcus aureus it was 16 µM (≈ 38.5 µg/mL); with Escherichia coli, 8 µM (≈ 19.2 µg/mL); in series [1] it was 32 µM (≈ 76.9 µg/mL); with Salmonella typhimurium, 1 µM (≈ 2.4 µg/mL); in the series with Listeria monocytogenes, 4 µM (≈ 9.62 µg/mL). Also, the viability at 24 h, 200 µM in “in vitro” came to 51.1%.

As to `CC[C@H](C)[C@H](NC(=O)CNC(=O)[C@@H](NC(=O)[C@H](CCCCN)NC(=O)[C@H](CCCCN)NC(=O)[C@H](Cc1ccccc1)NC(=O)[C@H](CC(C)C)NC(=O)[C@H](CCCCN)NC(=O)[C@H](Cc1c[nH]c2ccccc12)NC(=O)[C@@H](N)CCCCN)[C@@H](C)CC)C(=O)NCC(=O)N[C@@H](CCCCN)C(=O)N[C@@H](Cc1ccccc1)C(=O)N[C@@H](CC(C)C)C(=O)N[C@@H](CO)C(=O)N[C@@H](C)C(=O)N[C@@H](Cc1c[nH]cn1)C(=O)N[C@@H](CCCCN)C(=O)N[C@@H](CCCCN)C(=O)N[C@@H](Cc1ccccc1)C(N)=O` [CMA2] (H-KWKLFKKIGIGKFLSAHKKF-NH2), the Minimal inhibitory concentration in the series with Pseudomonas aeruginosa was determined as 4 µM (≈ 9.62 µg/mL); in the series on Staphylococcus aureus, 32 µM (≈ 76.9 µg/mL); in the series with Escherichia coli, 2 µM (≈ 4.81 µg/mL); in series [1], 16 µM (≈ 38.5 µg/mL); with Salmonella typhimurium, 1 µM (≈ 2.4 µg/mL); in the series on Listeria monocytogenes it was 1 µM (≈ 2.4 µg/mL).

For the molecule `CC[C@H](C)[C@H](NC(=O)CNC(=O)[C@@H](NC(=O)[C@H](Cc1c[nH]cn1)NC(=O)[C@H](CCCCN)NC(=O)[C@H](CCCCN)NC(=O)[C@H](CC(C)C)NC(=O)[C@H](CCCCN)NC(=O)[C@H](Cc1c[nH]c2ccccc12)NC(=O)[C@@H](N)CCCCN)[C@@H](C)CC)C(=O)NCC(=O)N[C@@H](CCCCN)C(=O)N[C@@H](Cc1c[nH]cn1)C(=O)N[C@@H](Cc1ccccc1)C(=O)N[C@@H](CC(C)C)C(=O)N[C@@H](CO)C(=O)N[C@@H](C)C(=O)N[C@@H](CCCCN)C(=O)N[C@@H](CCCCN)C(=O)N[C@@H](Cc1ccccc1)C(N)=O` [CMA3] (H-KWKLKKHIGIGKHFLSAKKF-NH2; N-terminus assumed), the Minimal inhibitory concentration in the series with Pseudomonas aeruginosa came to 8 µM (≈ 19.2 µg/mL); in the series on Staphylococcus aureus, 32 µM (≈ 76.6 µg/mL); in the series on Escherichia coli it was 4 µM (≈ 9.58 µg/mL); in series [1], 64 µM (≈ 153 µg/mL); in the series with Salmonella typhimurium it was 1 µM (≈ 2.39 µg/mL); in the series on Listeria monocytogenes it was 2 µM (≈ 4.79 µg/mL). The molecule also showed a viability at 24 h, 200 µM in “in vitro” of 92.4%.

Regarding `CC[C@H](C)[C@H](NC(=O)CNC(=O)[C@@H](NC(=O)[C@H](CCCCN)NC(=O)[C@H](CCCCN)NC(=O)[C@H](CC(C)C)NC(=O)[C@H](Cc1c[nH]cn1)NC(=O)[C@H](CCCCN)NC(=O)[C@H](Cc1c[nH]c2ccccc12)NC(=O)[C@@H](N)CCCCN)[C@@H](C)CC)C(=O)NCC(=O)N[C@@H](CCCCN)C(=O)N[C@@H](Cc1ccccc1)C(=O)N[C@@H](CC(C)C)C(=O)N[C@@H](CO)C(=O)N[C@@H](C)C(=O)N[C@@H](Cc1c[nH]cn1)C(=O)N[C@@H](CCCCN)C(=O)N[C@@H](CCCCN)C(=O)N[C@@H](Cc1ccccc1)C(N)=O` [CMA4] (H-KWKHLKKIGIGKFLSAHKKF-NH2), the Minimal inhibitory concentration in the series with Pseudomonas aeruginosa was 16 µM (≈ 38.3 µg/mL); with Staphylococcus aureus it was 32 µM (≈ 76.6 µg/mL); with Escherichia coli it was 4 µM (≈ 9.58 µg/mL); in series [1] it was 32 µM (≈ 76.6 µg/mL); in the series with Salmonella typhimurium it was 1 µM (≈ 2.39 µg/mL); with Listeria monocytogenes it was 2 µM (≈ 4.79 µg/mL). The molecule also registered a viability at 24 h, 200 µM in the series “in vitro” of 64.5%.

Regarding `CC[C@H](C)[C@H](NC(=O)CNC(=O)[C@@H](NC(=O)[C@H](CCCCN)NC(=O)[C@H](CCCCN)NC(=O)[C@H](CC(C)C)NC(=O)[C@H](Cc1c[nH]cn1)NC(=O)[C@H](CCCCN)NC(=O)[C@H](Cc1c[nH]c2ccccc12)NC(=O)[C@@H](N)CCCCN)[C@@H](C)CC)C(=O)NCC(=O)N[C@@H](CCCCN)C(=O)N[C@@H](Cc1c[nH]cn1)C(=O)N[C@@H](Cc1ccccc1)C(=O)N[C@@H](CC(C)C)C(=O)N[C@@H](CO)C(=O)N[C@@H](C)C(=O)N[C@@H](CCCCN)C(=O)N[C@@H](CCCCN)C(=O)N[C@@H](Cc1ccccc1)C(N)=O` [CMA5] (H-KWKHLKKIGIGKHFLSAKKF-NH2), the Minimal inhibitory concentration with Pseudomonas aeruginosa amounted to 16 µM (≈ 38.3 µg/mL); with Staphylococcus aureus, 32 µM (≈ 76.6 µg/mL); in the series on Escherichia coli, 8 µM (≈ 19.2 µg/mL); in series [1] it was 64 µM (≈ 153 µg/mL); in the series with Salmonella typhimurium, 1 µM (≈ 2.39 µg/mL); in the series on Listeria monocytogenes, 2 µM (≈ 4.79 µg/mL). For the same molecule, the viability at 24 h, 200 µM in the series “in vitro” was 78.9%.

On to `CC[C@H](C)[C@H](NC(=O)CNC(=O)[C@@H](NC(=O)[C@H](CCCCN)NC(=O)[C@H](CCCCN)NC(=O)[C@H](Cc1ccccc1)NC(=O)[C@H](CC(C)C)NC(=O)[C@H](CCCCN)NC(=O)[C@H](Cc1c[nH]c2ccccc12)NC(=O)[C@@H](N)CCCCN)[C@@H](C)CC)C(=O)NCC(=O)N[C@@H](CCCCN)C(=O)N[C@@H](Cc1ccccc1)C(=O)N[C@@H](CC(C)C)C(=O)N[C@@H](CCC(N)=O)C(=O)N[C@@H](CO)C(=O)N[C@@H](C)C(=O)N[C@@H](CCCCN)C(=O)N[C@@H](CCCCN)C(=O)N[C@@H](Cc1ccccc1)C(N)=O` [CMA6] (H-KWKLFKKIGIGKFLQSAKKF-NH2; N-terminus assumed), for which the Minimal inhibitory concentration with Pseudomonas aeruginosa stood at 4 µM (≈ 9.58 µg/mL); in the series with Staphylococcus aureus, 16 µM (≈ 38.3 µg/mL); with Escherichia coli, 4 µM (≈ 9.58 µg/mL); in series [1] it was 8 µM (≈ 19.2 µg/mL); with Salmonella typhimurium it was 1 µM (≈ 2.4 µg/mL); with Listeria monocytogenes it was 1 µM (≈ 2.4 µg/mL).

(Values after US9862749B2, “Analogue peptide CMA3 derived from CM-MA peptide and use thereof” (Industry-Academic Cooperation Foundation, Chosun University, priority 2014, dated 2018).)
